According to patent US5118670A, “Process and composition for increasing brain dopamine release” (Massachusetts Institute of Technology, priority 1988, dated 1992):

Test system: striatal dopamine release
Test: Effect of TRH and tyrosine on striatal dopamine release (in vivo microdialysis)
Design: species or system rats
Text: Groups of 7 male albino rats were implanted with a jugular venous catheter (for administering the drugs and withdrawing blood samples), and a microdialysis probe into the corpus striatum (for sampling fluid in equilibrium with intrasynaptic fluids).
Animals were placed under deep urethane anesthesia for the duration of the experiment. Each animal received 10 micrograms of TRH or a saline placebo, and/or tyrosine at a dose of 20 micrograms per kilogram, or a saline placebo.
Microdialysis samples (23 microliters of artificial cerebrospinal fluid per sample) were then collected at 15 minute intervals for 150 minutes, and rapidly assayed for dopamine, its chief metabolites (DOPAC and HVA), serotonin, and the serotonin metabolite, 5-HIAA.

Structure (SMILES) | other compounds measured in microdialysate (DOPAC, HVA, serotonin, 5-HIAA) (TRH 10 micrograms alone, anesthetized rats, striatal microdialysis) | increase (from the baseline) in dopamine release (TRH 10 micrograms alone, via jugular venous catheter, urethane-anesthetized male albino rats, corpus striatum microdialysis, after two hours) [%] | effect on dopamine release (higher dose of TRH (50 micrograms) without tyrosine, anesthetized rats, striatal microdialysis) [%] | increase in dopamine release (tyrosine alone, 20 micrograms per kilogram, via jugular venous catheter, anesthetized rats, striatal microdialysis, after two hours)
NC(=O)[C@@H]1CCCN1C(=O)[C@H](Cc1c[nH]cn1)NC(=O)[C@@H]1CCC(=O)N1 [TRH, L-pyroglutamyl-L-histidyl-L-prolineamide] | stable | 190 | 750 | 
N[C@@H](Cc1ccc(O)cc1)C(=O)O [tyrosine] |  |  |  | about 110%
